Data taken from US10940139B2, “Compounds that interact with the Ras superfamily for the treatment of cancers, inflammatory diseases, rasopathies, and fibrotic disease” (Shy Therapeutics LLC, priority 2017, dated 2021).
Like-named read-outs stand apart in the source and are kept apart here.

Key:
Assay in all cases: Ras GTP binding domain inhibition assay (labeled GTP)
KRas G12D mutant protein = KRas G12D mutant protein (Homo sapiens (Human), UniProt P01116, G12D); conditions: 20 μM compound; KRas G12D; read-out: % Inhibition at 20 μM of K-Ras mutant and wild-type protein, KRas G12D
KRas G12D mutant protein, sequence (P01116-2 other isoform, or with tags, fused parts or gaps G12D): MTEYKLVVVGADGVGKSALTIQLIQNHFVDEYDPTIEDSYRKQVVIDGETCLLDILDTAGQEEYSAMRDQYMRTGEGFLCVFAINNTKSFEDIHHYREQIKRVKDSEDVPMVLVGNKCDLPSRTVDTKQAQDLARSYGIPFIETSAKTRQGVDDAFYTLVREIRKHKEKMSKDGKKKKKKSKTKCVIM

KRas G12C mutant = KRas G12C mutant (Homo sapiens (Human), UniProt P01116, G12C); conditions: 20 μM compound; KRas G12C; read-out: % Inhibition at 20 μM of K-Ras mutant and wild-type protein, KRas G12C
KRas G12C mutant, sequence (P01116-2 other isoform, or with tags, fused parts or gaps G12C): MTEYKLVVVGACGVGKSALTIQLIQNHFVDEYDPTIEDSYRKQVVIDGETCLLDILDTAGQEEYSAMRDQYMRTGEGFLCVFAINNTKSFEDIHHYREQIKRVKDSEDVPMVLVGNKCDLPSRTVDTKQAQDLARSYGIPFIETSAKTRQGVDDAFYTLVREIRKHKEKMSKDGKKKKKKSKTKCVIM
In short: (§1)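 Inhibition of labeled GTP binding is measured on immobilized His-KRas protein in Tris buffer pH 7.5 with 1 mM MgCl2 and 1 mM DTT.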

KRas wild type = KRas wild type (Homo sapiens (Human), UniProt P01116); conditions: 20 μM compound; KRas wild type; read-out: % Inhibition at 20 μM of K-Ras mutant and wild-type protein, KRas wild type
KRas wild type, sequence (P01116-2 other isoform, or with tags, fused parts or gaps): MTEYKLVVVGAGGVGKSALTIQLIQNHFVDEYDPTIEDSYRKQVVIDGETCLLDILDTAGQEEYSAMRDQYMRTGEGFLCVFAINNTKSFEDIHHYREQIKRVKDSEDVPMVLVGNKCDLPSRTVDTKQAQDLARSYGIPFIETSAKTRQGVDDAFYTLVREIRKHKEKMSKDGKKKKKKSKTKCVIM
In short: as §1

KRas Q61H mutant = KRas Q61H mutant (Homo sapiens (Human), UniProt P01116, Q61H); conditions: 20 μM compound
KRas Q61H mutant, sequence (P01116-2 other isoform, or with tags, fused parts or gaps Q61H): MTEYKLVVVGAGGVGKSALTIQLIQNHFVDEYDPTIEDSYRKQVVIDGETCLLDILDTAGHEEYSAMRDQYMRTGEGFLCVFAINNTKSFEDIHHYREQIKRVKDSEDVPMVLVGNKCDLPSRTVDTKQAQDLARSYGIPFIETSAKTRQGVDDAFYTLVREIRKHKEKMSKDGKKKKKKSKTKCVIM
In short: as §1

[1] = target: KRas G12D/Q61H double mutant (Homo sapiens (Human), UniProt P01116, G12D/Q61H); conditions: for inhibition at 20 µM: 20 μM compound; for IC50: serial dilution, read-out: KRas G12D Q61H (classes E-H, IC50)
KRas G12D/Q61H double mutant, sequence (P01116-2 other isoform, or with tags, fused parts or gaps G12D/Q61H): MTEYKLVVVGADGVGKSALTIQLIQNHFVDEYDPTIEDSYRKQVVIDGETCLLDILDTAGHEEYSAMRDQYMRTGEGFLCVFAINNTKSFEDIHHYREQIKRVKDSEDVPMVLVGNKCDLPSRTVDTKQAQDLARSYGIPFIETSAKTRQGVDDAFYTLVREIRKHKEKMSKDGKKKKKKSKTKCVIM
In short: as §1

[2] = target: KRas G12C/Q61H double mutant (Homo sapiens (Human), UniProt P01116, G12C/Q61H); conditions: 20 μM compound
KRas G12C/Q61H double mutant, sequence (P01116-2 other isoform, or with tags, fused parts or gaps G12C/Q61H): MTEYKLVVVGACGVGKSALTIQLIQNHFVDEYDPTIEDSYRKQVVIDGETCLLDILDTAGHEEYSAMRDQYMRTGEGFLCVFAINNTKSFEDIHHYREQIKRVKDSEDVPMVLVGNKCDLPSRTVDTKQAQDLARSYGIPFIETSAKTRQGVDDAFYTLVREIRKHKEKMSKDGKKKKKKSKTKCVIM
In short: as §1

[3] = read-out: % Inhibition at 20 μM KRas Q61H
[4] = read-out: % Inhibition at 20 μM KRas G12D Q61H
[5] = read-out: % Inhibition at 20 μM KRas G12C Q61H
[6] = KRas Q61H, read-out: % Inhibition at 20 μM of K-Ras mutant and wild-type protein, KRas Q61H
[7] = KRas G12D/Q61H double mutant, read-out: % Inhibition at 20 μM of K-Ras mutant and wild-type protein, KRas G12D Q61H
[8] = KRas G12C/Q61H double mutant, read-out: % Inhibition at 20 μM of K-Ras mutant and wild-type protein, KRas G12C Q61H

| inhibition at 20 µM (KRas G12D mutant protein) [%] | inhibition at 20 µM (KRas G12C mutant) [%] | inhibition at 20 µM (KRas wild type) [%] | inhibition at 20 µM (KRas Q61H mutant; [3]) [%] | inhibition at 20 µM [1, 4] [%] | inhibition at 20 µM [2, 5] [%] | Compound | further results |
| --- | --- | --- | --- | --- | --- | --- | --- |
| 25 to 50 | 25 to 50 | 25 to 50 |  |  |  | Cn1ccnc1-c1nc(O)c2scc(-c3cccc(Cl)c3)c2n1 [drawing 3617] |  |
| 76 to 100 | 25 to 50 | 25 to 50 |  |  |  | CC(C)COc1ccc(-c2csc3c(O)nc(-c4nccn4C)nc23)cn1 [drawing 3612] |  |
| 51 to 75 | 1 to 25 | 25 to 50 |  |  |  | COC1CCN(c2nc(-c3nccn3C)nc3sc(-c4ccccc4)c(-c4ccccc4)c23)C1 (stereo not drawn) [drawing 3571] |  |
| 25 to 50 | 25 to 50 | 51 to 75 |  |  |  | Cn1cnc(-c2nc(O)c3scc(-c4cccc(C(F)(F)F)c4)c3n2)c1 [drawing 3604] |  |
| 1 to 25 | 1 to 25 | 0 |  |  |  | COCCNc1nc(-c2ccccn2)nc2sc(-c3ccccc3)c(-c3ccccn3)c12 [drawing 3620] |  |
| 1 to 25 | 1 to 25 | 1 to 25 |  |  |  | COCCNc1nc(-c2nccn2C)nc2sc(-c3ccccc3Cl)c(-c3ccccc3)c12 [drawing 3581] |  |
| 1 to 25 | 25 to 50 | 1 to 25 |  |  |  | Cn1ccnc1-c1nc(O)c2scc(-c3ccc(C(C)(C)C)cc3)c2n1 [drawing 3619] |  |
| 25 to 50 | 25 to 50 | 51 to 75 |  |  |  | CCN(CC)CCOc1nc(-c2nccn2C)nc2sc(-c3ccccc3)c(-c3ccccc3)c12 [drawing 3573] |  |
| 1 to 25 | 1 to 25 | 1 to 25 |  |  |  | COc1ccc(-c2c(-c3ccccc3)sc3c(O)nc(-c4nccn4C)nc23)cn1 [drawing 3593] |  |
| 25 to 50 | 25 to 50 | 51 to 75 |  |  |  | COCCNc1nc(-c2cn(C)cn2)nc2sc(-c3ccccc3)c(-c3ccccc3)c12 [drawing 3583] |  |
| 1 to 25 | 0 | 25 to 50 |  |  |  | CCOCCOc1nc(-c2nccn2C)nc2sc(-c3ccccc3)c(-c3ccccc3)c12 [drawing 3572] |  |
| 0 | 0 | 1 to 25 |  |  |  | Cn1ccnc1-c1nc(O)c2sc(-c3ccccc3)c(-c3cccc(C(F)(F)F)c3)c2n1 [drawing 3592] |  |
| 1 to 25 | 1 to 25 | 1 to 25 |  |  |  | CC(O)CNc1nc(-c2nccn2C)nc2sc(-c3ccccc3)c(-c3ccccc3)c12 (stereo not drawn) [drawing 3569] |  |
| 51 to 75 | 51 to 75 | 51 to 75 |  |  |  | CC(C)OCCNc1nc(-c2nccn2C)nc2sc(-c3ccccc3)c(-c3ccccc3)c12 [drawing 3567] |  |
| 1 to 25 | 1 to 25 | 1 to 25 |  |  |  | Cc1sc2c(O)nc(-c3nccn3C)nc2c1-c1ccc(F)cc1F [drawing 3621] |  |
| 51 to 75 | 1 to 25 | 25 to 50 |  |  |  | Cn1ccnc1-c1nc(O)c2scc(-c3cccc(OC(F)(F)F)c3)c2n1 [drawing 3603] |  |
| 25 to 50 | 25 to 50 | 25 to 50 |  |  |  | COCCNc1nc(-c2nccn2C)nc2sc(-c3ccccc3)c(-c3ccc(OC)cc3)c12 [drawing 3589] |  |
| 25 to 50 | 1 to 25 | 25 to 50 |  |  |  | Cn1ccnc1-c1nc(O)c2scc(-c3cccc(C(F)(F)F)c3)c2n1 [drawing 3598] |  |
| 51 to 75 | 25 to 50 | 1 to 25 |  |  |  | COc1nc(-c2ccccn2)nc(Oc2cccc(C(F)(F)F)c2)c1O [drawing 3565] |  |
| 25 to 50 | 25 to 50 | 25 to 50 |  |  |  | Cn1ccnc1-c1nc(O)c2scc(-c3ccccc3Cl)c2n1 [drawing 3615] |  |
| 51 to 75 | 1 to 25 | 25 to 50 |  |  |  | Cc1sc2c(O)nc(-c3nccn3C)nc2c1-c1ccc(OC(C)C)c(F)c1 [drawing 3610] |  |

| inhibition at 20 µM (KRas G12D mutant protein) [%] | inhibition at 20 µM (KRas G12C mutant) [%] | inhibition at 20 µM (KRas wild type) [%] | inhibition at 20 µM (KRas Q61H mutant; [3]) [%] | inhibition at 20 µM [1, 4] [%] | inhibition at 20 µM [2, 5] [%] | Compound | further results |
| --- | --- | --- | --- | --- | --- | --- | --- |
|  |  |  | 76 to 100 | 25 to 50 | 51 to 75 | O=C(c1csc2c(O)nc(-c3ccccn3)nc12)N1CCN(c2cccc(F)c2)CC1 [drawing 2753] |  |
|  |  |  | 25 to 50 | 0 | 25 to 50 | COc1ccc(CCN(C)C(=O)c2csc3nc(-c4ccccn4)nc(N4CCOCC4)c23)cn1 [drawing 2746] |  |
|  |  |  | 51 to 75 | 25 to 50 | 51 to 75 | Cc1ccccc1N1CCN(C(=O)c2csc3c(O)nc(-c4ccccn4)nc23)CC1 [drawing 2723] |  |
|  |  |  |  |  |  | Oc1nc(-c2ccccn2)nc2c3c(sc12)CNC3 [drawing 3477] | inhibition at 20 µM (KRas Q61H mutant; [6]): 76 to 100%; inhibition at 20 µM [1, 7]: 51 to 75%; inhibition at 20 µM [2, 8]: 76 to 100% |
|  |  |  | 51 to 75 | 1 to 25 | 25 to 50 | O=C(c1csc2c(O)nc(-c3ccccn3)nc12)N1CCOC(c2ccccc2)C1 (stereo not drawn) [drawing 2766] |  |
|  |  |  |  |  |  | Oc1nc(-c2ccccn2)nc2cc(-c3ccccc3Cl)sc12 [drawing 3556] | inhibition at 20 µM (KRas Q61H mutant; [6]): 51 to 75%; inhibition at 20 µM [1, 7]: 1 to 25%; inhibition at 20 µM [2, 8]: 25 to 50% |
|  |  |  |  |  |  | Oc1nc(-c2ccccn2)nc2cc(-c3cccc(Br)c3)sc12 [drawing 3564] | inhibition at 20 µM (KRas Q61H mutant; [6]): 25 to 50%; inhibition at 20 µM [1, 7]: 25 to 50%; inhibition at 20 µM [2, 8]: 1 to 25% |
|  |  |  |  |  |  | Cn1cnc(-c2nc(O)c3c(-c4ccccc4)c(-c4ccncc4)sc3n2)c1 [drawing 3528] | inhibition at 20 µM (KRas Q61H mutant; [6]): 1 to 25%; inhibition at 20 µM [1, 7]: 1 to 25%; inhibition at 20 µM [2, 8]: 1 to 25% |
|  |  |  | 1 to 25 | 0 | 1 to 25 | COc1cc(OC)cc(N2CCN(C(=O)c3csc4c(O)nc(-c5ccccn5)nc34)CC2)c1 [drawing 2757] |  |
|  |  |  | 1 to 25 | 1 to 25 | 1 to 25 | N#Cc1ccc(CCNC(=O)c2csc3nc(-c4ccccn4)nc(N4CCOCC4)c23)cc1 [drawing 2750] |  |
|  |  |  |  |  |  | COC(=O)c1c(C)sc2c(O)nc(-c3ccccn3)nc12 [drawing 3473] | inhibition at 20 µM (KRas Q61H mutant; [6]): 51 to 75%; inhibition at 20 µM [1, 7]: 51 to 75%; inhibition at 20 µM [2, 8]: 51 to 75% |
|  |  |  | 51 to 75 | 25 to 50 | 25 to 50 | Nc1nc(-c2ccccn2)nc2scc(Br)c12 [drawing 2894] |  |
|  |  |  | 25 to 50 | 0 | 25 to 50 | COc1cc(CCN(C)C(=O)c2csc3nc(-c4ccccn4)nc(N4CCOCC4)c23)ccn1 [drawing 2781] |  |
|  |  |  | 51 to 75 | 25 to 50 | 25 to 50 | COc1ccc(CCNC(=O)c2csc3nc(-c4ccccn4)nc(N4CCOCC4)c23)cn1 [drawing 2745] |  |
|  |  |  |  |  |  | COc1cnc(CNC(=O)c2c(C)sc3c(O)nc(-c4ccccn4)nc23)[nH]c1=O [drawing 3523] | inhibition at 20 µM (KRas Q61H mutant; [6]): 0%; inhibition at 20 µM [1, 7]: 0%; inhibition at 20 µM [2, 8]: 1 to 25% |
|  |  |  |  |  |  | Oc1nc(-c2ccccn2)nc2c(-c3cnc4ccccc4c3)csc12 [drawing 3462] | inhibition at 20 µM (KRas Q61H mutant; [6]): 51 to 75%; inhibition at 20 µM [1, 7]: 25 to 50%; inhibition at 20 µM [2, 8]: 25 to 50% |
|  |  |  |  |  |  | Cc1sc2c(O)nc(-c3ccccn3)nc2c1C(=O)N1CCN(c2ccccc2)CC1 [drawing 3508] | inhibition at 20 µM (KRas Q61H mutant; [6]): 51 to 75%; inhibition at 20 µM [1, 7]: 25 to 50%; inhibition at 20 µM [2, 8]: 51 to 75% |
|  |  |  | 25 to 50 | 1 to 25 | 25 to 50 | COc1cc(CCNC(=O)c2csc3nc(-c4ccccn4)nc(N4CCOCC4)c23)ccn1 [drawing 2747] |  |
|  |  |  |  |  |  | COCC(C)Nc1nc(-c2ccccn2)nc(C(=O)NCCCc2c[nH]cn2)c1Oc1ccccc1 (stereo not drawn) [drawing 3550] | inhibition at 20 µM (KRas Q61H mutant; [6]): 1 to 25%; inhibition at 20 µM [1, 7]: 1 to 25%; inhibition at 20 µM [2, 8]: 1 to 25% |
|  |  |  | 51 to 75 | 1 to 25 | 51 to 75 | CC(C(=O)Nc1ccnc(-c2ccccn2)n1)c1ccc(C#N)cc1 (stereo not drawn) [drawing 2794] |  |
|  |  |  |  |  |  | Oc1nc(-c2ccccn2)nc2c(-c3cncc(C(F)F)c3)csc12 [drawing 3507] | inhibition at 20 µM (KRas Q61H mutant; [6]): 1 to 25%; inhibition at 20 µM [1, 7]: 1 to 25%; inhibition at 20 µM [2, 8]: 1 to 25% |

| Compound | inhibition at 20 µM (KRas G12D mutant protein) [%] | inhibition at 20 µM (KRas G12C mutant) [%] | inhibition at 20 µM (KRas wild type) [%] | inhibition at 20 µM (KRas Q61H mutant; [3]) [%] | inhibition at 20 µM [1, 4] [%] | inhibition at 20 µM [2, 5] [%] | further results |
| --- | --- | --- | --- | --- | --- | --- | --- |
| O=C(c1csc2c(O)nc(-c3ccccn3)nc12)N1CCN(c2ccc(O)c(Cl)c2)CC1 [drawing 2803] |  |  |  | 51 to 75 | 51 to 75 | 51 to 75 | IC50 [1]: 11 to 30 µM |
| COc1ccccc1C1CN(C(=O)c2csc3c(O)nc(-c4ccccn4)nc23)CCO1 (stereo not drawn) [drawing 2767] |  |  |  | 76 to 100 | 51 to 75 | 51 to 75 | IC50 [1]: 11 to 30 µM |
| O=C(c1csc2c(O)nc(-c3ccccn3)nc12)N1CCOC(c2nccs2)C1 (stereo not drawn) [drawing 2734] |  |  |  | 51 to 75 | 25 to 50 | 51 to 75 | IC50 [1]: 5 to 10 µM |
